Experimental data published in the NIST ThermoML archive (doi:10.1021/je7005067).

Conditions: Liquid

CCCCC(CC)COC(=O)c1ccccc1C(=O)OCC(CC)CCCC (configuration not stated) [bis(2-ethylhexyl) 1,2-benzenedicarboxylate]
Conditions | vapor or sublimation pressure [kPa]
423.15 K | 0.008
433.15 K | 0.017
443.15 K | 0.0326
448.15 K | 0.0419
453.15 K | 0.0655
463.15 K | 0.1154
473.15 K | 0.1874
